Patent US6812034B2, “Fetuin-MGP-mineral complex in serum assayed to determine calcification risk” (The Regents of the University of California, priority 2000, dated 2004)

Experiments:
[1] = filtration of serum through a 300 kDa membrane; type: in vivo, rat
Protocol: In a typical experiment, blood was obtained from 2 control rats and from 2 rats 6 h after a dose of 8 mg etidronate/100 g, and each blood sample was immediately placed into a 2.5 ml gold top vacutainer tube (SST gel and clot activator tube, Becton Dickinson). […] The filtrate and retentate were then analyzed to determine calcium, phosphate, and volume. The typical filtrate volume recovered was 0.70 ml and the typical retentate volume recovered was 0.26 ml.

[2] = system: growth plate cartilage mineralization; test: microradiograph of the proximal tibia; type: in vivo, rat; settings: 4 mg to 100 g rats at t=0 and 24 h, killed at 48 h
Protocol: These rats were exsanguinated at t=48 h. Serum was obtained at each time point and stored at -20° C. until later analysis. Tibias from the rats killed at 48 h, as well as from age-matched controls, were removed, cleaned of adhering tissue, and fixed in 70% ethanol. Tibia samples were embedded in plastic and cut into sections of 500 microns by Pathology Associates International (Frederickberg, Md.). The resulting sections were microradiographed using a Hewlett-Packard Model […] Faxitron Xray machine. All animal experiments were approved by the UCSD animal subjects committee.

[3] = weight, tibia length and serum calcium and phosphate in warfarin-treated rats; type: in vivo, rat
From the text: This procedure induces artery calcification within 2 weeks without the presence of hypercalcemia.

[4] = system: warfarin-induced artery calcification; test: artery calcification in rats treated with warfarin for 2 or 4 weeks; type: in vivo, rat; settings: 6.25 mg P/kg/day plus warfarin, both carotid arteries
Protocol: (§1) Tissues were subsequently washed extensively with buffer and extracted with 1 ml of 10% formic acid for 24 h at room temperature, as described. Calcium levels in serum were determined colorimetrically using cresolphthalein complexone (Sigma) and phosphate levels in serum and in acid tissue extracts were determined calorimetrically as described (Zhu et al. (1994) Cardiology, 85: 370-377). Tissue sectioning and staining were carried out by Biomedical Testing Services, Inc., (San Diego, Calif.). The effect of bisphosphonates on artery calcification was also examined in rats treated with warfarin alone using procedures which have been described elsewhere (Price et al. (1998) Arterioscler. Thromb. Vasc. Biol. 18: 1400-1407).

[5] = system: vitamin D-induced artery calcification; test: mineral phosphate accumulation in acid demineralization extracts of thoracic aorta and carotid arteries, vitamin D plus warfarin; type: in vivo, rat
Protocol: as §1, with “first” for “also”, “in which artery calcification was induced by treatment” for “treated”, “plus high doses of vitamin D. […] All animals were killed by exsanguination at 96 h. […] All animals were killed by exsanguination at 96 h after the first vitamin D dose. […] All animals were killed by exsanguination 96 h after the first vitamin D injection.” for “alone using procedures which have been described elsewhere (Price et al. (1998) Arterioscler. Thromb. Vasc. Biol. 18: 1400-1407).”

[6] = previous study (Price et al. 1981); cited from earlier work
[7] = 8 mg/100 g sc, 6 h, 0.26 ml retentate, 300 kDa membrane
[8] = 8 mg/100 g sc, 6 h, 0.7 ml filtrate, 300 kDa membrane
[9] = 8 mg/100 g sc, 6 h, 1 ml serum prior to filtration
[10] = 8 mg/100 g, 6 h serum incubated at room temperature for 1 day
[11] = 6.25 mg P/kg/day plus warfarin, 4 weeks

## CC(O)(P(=O)(O)O)P(=O)(O)O [Etidronate, (1-hydroxyethylylidene)-bisphosphonate]
[1]; [7]
  Calcium, Retentate: 2.72 µmol
  MGP, Retentate: 11,630 ng
  Phosphate, Retentate: 1.84 µmol
[1]; [8]
  Calcium, Filtrate: 1.18 µmol
  MGP, Filtrate: 291 ng
  Phosphate, Filtrate: 2.98 µmol
[1]; [9]
  Calcium, Initial Serum: 4.30 µmol
  MGP, Initial Serum: 14,800 ng
  Phosphate, Initial Serum: 5.10 µmol
[1]; [10]
  filtrate MGP: 320 ng
  filtrate calcium: 1.21 µmol
  filtrate phosphate: 2.79 µmol
  retentate MGP: 12,127 ng
  retentate phosphate: 2.02 µmol
[1]; 8 mg/100 g, 6 h serum incubated at room temperature for 1 day, then 300 kDa filtration
  retentate calcium: 2.83 µmol
[1]; serum frozen on dry ice and thawed 5 times
  retentate and filtrate levels of calcium, phosphate and MGP vs serum filtered immediately: comparable
[2]
  microradiograph of the proximal tibial metaphysis: alternating bands of calcification and no calcification
[3]; 6.25 mg P/kg/day plus warfarin 4 weeks, warfarin alone 3.80±0.04, p<0.001
  final length of the tibia: 3.59±0.03 cm
[3]; [11]
  Ending wt: 238 ± 11 gm
  effect on weight gain: inhibits weight gain
  mg Ca dl serum: 10.9 ± 0.8 mg/dL
  mg P dl serum: 8.1 ± 0.6 mg/dL
[4]
  nmol PO4 Carotid: 55.2 ± 14.5 nmol
[5]; 84 h, FIG. 3
  dose required to reduce the extent of mineralization by half in the thoracic aorta: 2 mg P/kg/day
[5]; 84 h, FIG. 4
  dose required to reduce the extent of mineralization by half in the carotid artery: 2 mg P/kg/day
[5]; daily subcutaneous dose, vitamin D-induced artery calcification, male rats initially 200 g
  Artery Calcification Dose for 50% inhibition: 2 mg P/kg/day
[5]; relative to etidronate = 1
  Artery Calcification Relative potency: 1
[6]
  transient elevation in serum BGP levels: 3 fold
